≈ marks a conversion by molar mass, not a printed value. Read-outs that look alike come from different tables or passages of the source.
Key:
[1] = test system: Mycobacterium tuberculosis H37Rv strain; experiment: Anti-tubercular properties, alamar blue microplate assay; format: cell-based; conditions: 168 h, seven days incubation, read-out: anti-mycobacterial activity (MIC)
[2] = test system: Enterococcus faecium ATCC 35667; experiment: In vitro antibacterial activity, dilution susceptibility test (CLSI M07-A10); format: cell-based; conditions: ATCC35667
Source text: (§1) Enterococcus faecium resistant to VRE, and Gram-negative organisms including Klebsiella pneumonia, Escherichia coli, Pseudomonas aeruginosa.

[3] = test system: Staphylococcus aureus ATCC 29213; experiment: as above; format: cell-based; conditions: ATCC29213
Source text: as §1

[4] = test system: Escherichia coli MTCC 443; experiment: as above; format: cell-based; conditions: MTCC443
Source text: as §1

[5] = test system: Staphylococcus aureus ATCC BAA-1556 (MERSA resistant); experiment: as above; format: cell-based; conditions: ATCCBAA1556
Source text: as §1

[6] = test system: Klebsiella pneumonia MTCC 618; experiment: as above; format: cell-based; conditions: Klebsiella pneumoniae, MTCC618
Source text: as §1

[7] = test system: Pseudomonas aeruginosa MTCC 741; experiment: as above; format: cell-based; conditions: MTCC741
Source text: as §1

[8] = test system: Bacillus subtilis MTCC 441; experiment: as above; format: cell-based; conditions: MTCC441
Source text: as §1

[9] = test system: Enterococcus faecium ATCC 51559 (VRE resistant); experiment: as above; format: cell-based
Source text: as §1

[10] = test system: Staphylococcus epidermidis; experiment: as above; format: cell-based
Source text: as §1

[11] = molecular target: T1, DNA gyrase from E. coli (Escherichia coli, UniProt P0AES4+P0AES6); experiment: Inhibitory activities on E. coli DNA gyrase (Inspiralis assay); format: biochemical
T1 construct: purchased Inspiralis
Description: First, the plates were rehydrated with buffer (20 mM Tris-HCl with pH 7.6, 0.01% w/v BSA, 0.05% v/v Tween 20, 137 mM NaCl) and the biotinylated oligonucleotide was then immobilized. After washing off the unbound oligonucleotide, the enzyme test was performed. The reaction volume of 30 μL in buffer (35 mM Tris×HCl with pH 7.5, 4 mM MgCl2, 24 mM KCl, 2 mM DTT, 1.8 mM spermidine, 1 mM ATP, 6.5% w/v glycerol, 0.1 mg/mL albumin) contained 1.5 U of DNA gyrase from E. coli, 0.75 μg of relaxed pNO1 plasmid, and 3 μL solution of the inhibitor in 10% DMSO and 0.008% Tween 20. Reaction solutions were incubated at 37° C. for 30 min. After that, the TF buffer (50 mM NaOAc with pH 5.0, 50 mM NaCl and 50 mM MgCl2) was added to terminate the enzymatic reaction. After additional incubation for 30 min at rt, during which biotinoligonucleotide-plasmid triplex was formed, the unbound plasmid was washed off using TF buffer and SybrGOLD in T10 buffer (10 mM Tris HCl with pH 8.0 and 1 mM EDTA) was added. The fluorescence was measured with a microplate reader (BioTek Synergy H4, excitation: 485 nm, emission: 535 nm). Initial screening was done at 100 or 10 μM concentration of inhibitors. […] GraphPad Prism software was used to calculate the IC50 values. The result is given as the average value of three independent measurements.

T1 sequence (P0AES4 whole entry, one chain of several): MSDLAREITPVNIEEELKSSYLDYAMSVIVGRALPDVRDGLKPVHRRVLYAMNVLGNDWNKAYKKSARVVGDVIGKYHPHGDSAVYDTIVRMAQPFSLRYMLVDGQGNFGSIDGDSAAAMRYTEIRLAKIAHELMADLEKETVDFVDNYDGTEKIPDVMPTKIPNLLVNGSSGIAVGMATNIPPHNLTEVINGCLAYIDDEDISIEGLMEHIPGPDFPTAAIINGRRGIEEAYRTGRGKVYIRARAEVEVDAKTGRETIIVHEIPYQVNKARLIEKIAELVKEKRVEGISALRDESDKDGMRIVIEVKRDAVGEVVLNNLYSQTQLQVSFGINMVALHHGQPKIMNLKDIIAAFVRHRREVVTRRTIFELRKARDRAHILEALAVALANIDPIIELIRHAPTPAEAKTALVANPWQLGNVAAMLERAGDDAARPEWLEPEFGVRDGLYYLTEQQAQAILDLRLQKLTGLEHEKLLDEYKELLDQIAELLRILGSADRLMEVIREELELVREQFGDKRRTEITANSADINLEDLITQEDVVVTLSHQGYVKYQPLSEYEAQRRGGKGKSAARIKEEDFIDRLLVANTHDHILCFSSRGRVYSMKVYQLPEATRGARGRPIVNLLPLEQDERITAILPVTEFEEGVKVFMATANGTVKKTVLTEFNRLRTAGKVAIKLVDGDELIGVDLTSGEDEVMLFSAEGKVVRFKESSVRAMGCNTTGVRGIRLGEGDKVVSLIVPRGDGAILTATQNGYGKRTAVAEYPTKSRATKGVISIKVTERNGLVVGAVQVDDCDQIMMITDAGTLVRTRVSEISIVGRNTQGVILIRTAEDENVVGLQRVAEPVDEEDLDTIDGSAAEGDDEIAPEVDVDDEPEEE

**Q.** Which MIC [1] does the source give for `CC(=O)Nc1cccc(Nc2nccc(Nc3ccc(C(=O)O)cc3CN(C)C3CCCCC3)n2)c1` [Compound 7, 4-((2-((3-acetamidophenyl)amino)pyrimidin-4-yl)amino)-3-((cyclohexyl(methyl)amino)methyl)benzoic acid] here?
**A.** 16 µg/mL (≈ 32.7 µM)

**Q.** What about the MIC [2] of the same compound?
**A.** 4 µg/mL (≈ 8.19 µM)

**Q.** And the MIC [3]?
**A.** 8 µg/mL (≈ 16.4 µM)

**Q.** What about the MIC [4] of the same compound?
**A.** 8 µg/mL (≈ 16.4 µM)

**Q.** What about the MIC [5] of the same compound?
**A.** 8 µg/mL (≈ 16.4 µM)

**Q.** And the MIC ([6]; Klebsiella pneumonia MTCC 618, read-out: MIC)?
**A.** 4 µg/mL (≈ 8.19 µM)

**Q.** And the MIC ([7]; Pseudomonas aeruginosa MTCC 741, read-out: MIC)?
**A.** 4 µg/mL (≈ 8.19 µM)

**Q.** And the MIC [8]?
**A.** 4 µg/mL (≈ 8.19 µM)

**Q.** What about the MIC [9] of the same compound?
**A.** 16 µg/mL (≈ 32.7 µM)

**Q.** What about the MIC [10] of the same compound?
**A.** 8 µg/mL (≈ 16.4 µM)

**Q.** What about the IC50 [11] of the same compound?
**A.** 250 nM

**Q.** For `CN[C@H](CC(C)C)C(=O)N[C@H]1C(=O)N[C@@H](CC(N)=O)C(=O)N[C@H]2C(=O)N[C@H]3C(=O)N[C@H](C(=O)N[C@H](C(=O)O)c4cc(O)cc(O)c4-c4cc3ccc4O)[C@H](O)c3ccc(c(Cl)c3)Oc3cc2cc(c3O[C@@H]2O[C@H](CO)[C@@H](O)[C@H](O)[C@H]2O[C@H]2C[C@](C)(N)[C@H](O)[C@H](C)O2)Oc2ccc(cc2Cl)[C@H]1O` [Vancomycin, reference compound], which MIC [6] is on record?
**A.** > 128 µg/mL

**Q.** What about the MIC ([7]; Pseudomonas aeruginosa) of the same compound?
**A.** > 128 µg/mL

From patent US11891362B1, “N2,N4-disubstituted pyrimidine-2,4-diamine compounds as antibacterial agents” (KING FAISAL UNIVERSITY, priority 2023, dated 2024)
